Reference: patent US20220175768A1, “FGFR TYROSINE KINASE INHIBITORS FOR THE TREATMENT OF UROTHELIAL CARCINOMA” (Janssen Pharmaceutica NV, priority 2019, published 2022)
Where two headings read alike, the source gives them in different places.

[1] = 8 mg continuous, selected regimen 3 (n = 99)
[2] = 8 mg continuous, selected regimen 3 (n = 99), Table 14
[3] = 10 mg intermittent, regimen 1 (n = 33)

Experimental: Study treatment was administered on 28-day cycles. Prior to interim analysis 1, there were 2 treatment regimens. Patients were randomized 1:1 to 28-day cycles to the following 2 regimens until a regimen was selected for further study: Regimen 1 (10 mg once daily intermittent (7 days on/7 days); Regimen 2 (6 mg once daily continuous). Randomization was stratified according to performance status (0 to 1 vs. 2), hemoglobin value (<10 vs. ≥10 g per dl), FGFR alteration type (mutation vs. fusion), prior treatment status (chemotherapy-resistant vs. chemotherapy naïve), and disease distribution (presence or absence of visceral [liver, lung, bone] metastases). Starting dose selection was based on phase 1 efficacy and tolerability.
Thus, after interim analysis, this became a single-arm study. […] Treatment continued until disease progression or unacceptable adverse event(s) per investigator.
All objective responses required confirmation by an additional investigator assessment within 4 to 6 weeks of first assessment. Disease evaluations for regimen 3 were also performed by an independent radiographic review committee. […] Safety was evaluated based on clinical laboratory tests, physical exams, electrocardiograms, and ophthalmology examinations. Adverse events and abnormalities were assessed by investigator and graded per NCI CTCAE v.4.0
Prophylactic measures were taken to minimize risk of common adverse events related to FGFR inhibition. To reduce risk of hyperphosphatemia, a low-phosphate diet was recommended for all patients (600 to 800 mg of dietary phosphate intake per day). To reduce the risk of skin effects, the application of alcohol-free emollient moisturizing cream and avoidance of unnecessary exposure to sunlight, soap, perfumed products, and hot baths was recommended. Patients were asked to keep their fingers and toes clean and nails trimmed to reduce risk of nail effects.
Additional ophthalmology examinations were performed if clinically indicated.

COc1cc(OC)cc(N(CCNC(C)C)c2ccc3ncc(-c4cnn(C)c4)nc3c2)c1 [erdafitinib, N-(3,5-dimethoxy-phenyl)-N′-(1-methylethyl)-N-[3-(1-methyl-1H-pyrazol-4-yl)quinoxalin-6-yl]ethane-1,2-diamine]
Patients with Hyperphosphatemia, Grade ≥3 [1]: 2 (2) no. (%)
Patients with Hypomagnesemia, Any grade [1]: 10 (10) no. (%)
Patients with Hypomagnesemia, Grade 1 [1]: 9 (9) no. (%)
Patients with Hypomagnesemia, Grade 2 [1]: 1 (1) no. (%)
Patients with Hypomagnesemia, Grade ≥3 [1]: 0 no. (%)
Patients with Hyponatremia, Any grade [1]: 12 (12) no. (%)
Patients with Hyponatremia, Grade 1 [1]: 1 (1) no. (%)
Patients with Hyponatremia, Grade 2 [1]: 0 no. (%)
Patients with Hyponatremia, Grade ≥3 [1]: 11 (11) no. (%)
Patients with Insomnia, Any grade [1]: 7 (7) no. (%)
Patients with Insomnia, Grade 1 [1]: 4 (4) no. (%)
Patients with Insomnia, Grade 2 [1]: 3 (3) no. (%)
Patients with Insomnia, Grade ≥3 [1]: 0 no. (%)
Patients with Lacrimation increased, Any grade [1]: 11 (11) no. (%)
Patients with Lacrimation increased, Grade 1 [1]: 8 (8) no. (%)
Patients with Lacrimation increased, Grade 2 [1]: 3 (3) no. (%)
Patients with Lacrimation increased, Grade ≥3 [1]: 0 no. (%)
Patients with Nail dystrophy, Any grade [1]: 16 (16) no. (%)
Patients with Nail dystrophy, Grade 1 [1]: 5 (5) no. (%)
Patients with Nail dystrophy, Grade 2 [1]: 5 (5) no. (%)
Patients with Nail dystrophy, Grade ≥3 [1]: 6 (6) no. (%)
Patients with Nausea, Any grade [1]: 20 (20) no. (%)
Patients with Nausea, Grade 1 [1]: 13 (13) no. (%)
Patients with Nausea, Grade 2 [1]: 6 (6) no. (%)
Patients with Nausea, Grade ≥3 [1]: 1 (1) no. (%)
Patients with Onycholysis, Any grade [1]: 18 (18) no. (%)
Patients with Onycholysis, Grade 1 [1]: 6 (6) no. (%)
Patients with Onycholysis, Grade 2 [1]: 10 (10) no. (%)
Patients with Onycholysis, Grade ≥3 [1]: 2 (2) no. (%)
Patients with Onychomadesis, Any grade [1]: 7 (7) no. (%)
Patients with Onychomadesis, Grade 1 [1]: 2 (2) no. (%)
Patients with Onychomadesis, Grade 2 [1]: 5 (5) no. (%)
Patients with Onychomadesis, Grade ≥3 [1]: 0 no. (%)
Patients with Oropharyngeal pain, Any grade [1]: 10 (10) no. (%)
Patients with Oropharyngeal pain, Grade 1 [1]: 8 (8) no. (%)
Patients with Oropharyngeal pain, Grade 2 [1]: 1 (1) no. (%)
Patients with Oropharyngeal pain, Grade ≥3 [1]: 1 (1) no. (%)
Patients with Pain in extremity, Any grade [1]: 12 (12) no. (%)
Patients with Pain in extremity, Grade 1 [1]: 10 (10) no. (%)
Patients with Pain in extremity, Grade 2 [1]: 2 (2) no. (%)
Patients with Pain in extremity, Grade ≥3 [1]: 0 no. (%)
Patients with Paronychia, Any grade [1]: 17 (17) no. (%)
Patients with Paronychia, Grade 1 [1]: 3 (3) no. (%)
Patients with Paronychia, Grade 2 [1]: 11 (11) no. (%)
Patients with Paronychia, Grade ≥3 [1]: 3 (3) no. (%)
Patients with Peripheral edema, Any grade [1]: 9 (9) no. (%)
Patients with Peripheral edema, Grade 1 [1]: 5 (5) no. (%)
Patients with Peripheral edema, Grade 2 [1]: 3 (3) no. (%)
Patients with Peripheral edema, Grade ≥3 [1]: 1 (1) no. (%)
Patients with Pyrexia, Any grade [1]: 13 (13) no. (%)
Patients with Pyrexia, Grade 1 [1]: 8 (8) no. (%)
Patients with Pyrexia, Grade 2 [1]: 5 (5) no. (%)
Patients with Pyrexia, Grade ≥3 [1]: 0 no. (%)
Patients with Retinal detachment, Any grade [1]: 5 (5) no. (%)
Patients with Retinal detachment, Grade 1 [1]: 3 (3) no. (%)
Patients with Retinal detachment, Grade 2 [1]: 2 (2) no. (%)
Patients with Retinal detachment, Grade ≥3 [1]: 0 no. (%)
Patients with Stomatitis, Any grade [1]: 57 (58) no. (%)
Patients with Stomatitis, Grade 1 [1]: 21 (21) no. (%)
Patients with Stomatitis, Grade 2 [1]: 26 (26) no. (%)
Patients with Stomatitis, Grade ≥3 [1]: 10 (10) no. (%)
Patients with Urinary tract infection, Any grade [1]: 16 (16) no. (%)
Patients with Urinary tract infection, Grade 1 [1]: 0 no. (%)
Patients with Urinary tract infection, Grade 2 [1]: 11 (11) no. (%)
Patients with Urinary tract infection, Grade ≥3 [1]: 5 (5) no. (%)
Patients with Vision blurred, Any grade [1]: 17 (17) no. (%)
Patients with Vision blurred, Grade 1 [1]: 10 (10) no. (%)
Patients with Vision blurred, Grade 2 [1]: 7 (7) no. (%)
Patients with Vision blurred, Grade ≥3 [1]: 0 no. (%)
Patients with Vomiting, Any grade [1]: 13 (13) no. (%)
Patients with Vomiting, Grade 1 [1]: 10 (10) no. (%)
Patients with Vomiting, Grade 2 [1]: 1 (1) no. (%)
Patients with Vomiting, Grade ≥3 [1]: 2 (2) no. (%)
Patients with Weight decreased, Any grade [1]: 15 (15) no. (%)
Patients with Weight decreased, Grade 1 [1]: 7 (7) no. (%)
Patients with Weight decreased, Grade 2 [1]: 8 (8) no. (%)
Patients with Weight decreased, Grade ≥3 [1]: 0 no. (%)
Patients with Alopecia, Grade ≥3 [2]: 0 no.
Patients with Decreased appetite, Grade ≥3 [2]: 0 no.
Patients with Dry mouth, Grade ≥3 [2]: 0 no.
Patients with Dry skin, Grade ≥3 [2]: 0 no.
Patients with Urinary tract infection, Grade 1 [2]: 0 no.
Patients with Vision blurred, Grade ≥3 [2]: 0 no.
Patients with some type of eye disorder, regardless of relation to treatment (8 mg per day continuous): 63%
Patients with grade ≥3 treatment-emergent adverse events (8 mg per day continuous group uptitrated to 9 mg per day): 68%
Patients with Abdominal pain, Any grade [3]: 5 (15) no. (%)
Patients with Abdominal pain, Grade 1 [3]: 2 (6) no. (%)
Patients with Abdominal pain, Grade 2 [3]: 2 (6) no. (%)
Patients with Abdominal pain, Grade ≥3 [3]: 1 (3) no. (%)
Patients with Alanine aminotransferase increased, Any grade [3]: 1 (3) no. (%)
Patients with Alanine aminotransferase increased, Grade 1 [3]: 0 no. (%)
Patients with Alanine aminotransferase increased, Grade 2 [3]: 1 (3) no. (%)
Patients with Alanine aminotransferase increased, Grade ≥3 [3]: 0 no. (%)
Patients with Alopecia, Any grade [3]: 4 (12) no. (%)
Patients with Alopecia, Grade 1 [3]: 2 (6) no. (%)
Patients with Alopecia, Grade 2 [3]: 2 (6) no. (%)
Patients with Alopecia, Grade ≥3 [3]: 0 no. (%)
Patients with Anemia, Any grade [3]: 8 (24) no. (%)
Patients with Anemia, Grade 1 [3]: 1 (3) no. (%)
Patients with Anemia, Grade 2 [3]: 1 (3) no. (%)
Patients with Anemia, Grade ≥3 [3]: 6 (18) no. (%)
Patients with Arthralgia, Any grade [3]: 7 (21) no. (%)
Patients with Arthralgia, Grade 1 [3]: 3 (9) no. (%)
Patients with Arthralgia, Grade 2 [3]: 2 (6) no. (%)
Patients with Arthralgia, Grade ≥3 [3]: 2 (6) no. (%)
Patients with Aspartate aminotransferase increased, Any grade [3]: 2 (6) no. (%)
Patients with Aspartate aminotransferase increased, Grade 1 [3]: 2 (6) no. (%)
Patients with Aspartate aminotransferase increased, Grade 2 [3]: 0 no. (%)
Patients with Aspartate aminotransferase increased, Grade ≥3 [3]: 0 no. (%)
Patients with Asthenia, Any grade [3]: 10 (30) no. (%)
Patients with Asthenia, Grade 1 [3]: 5 (15) no. (%)
Patients with Asthenia, Grade 2 [3]: 3 (9) no. (%)
Patients with Asthenia, Grade ≥3 [3]: 2 (6) no. (%)
Patients with Back pain, Any grade [3]: 5 (15) no. (%)
Patients with Back pain, Grade 1 [3]: 1 (3) no. (%)
Patients with Back pain, Grade 2 [3]: 1 (3) no. (%)
Patients with Back pain, Grade ≥3 [3]: 3 (9) no. (%)
Patients with Blood creatinine increased, Any grade [3]: 4 (12) no. (%)
Patients with Blood creatinine increased, Grade 1 [3]: 3 (9) no. (%)
Patients with Blood creatinine increased, Grade 2 [3]: 1 (3) no. (%)
Patients with Blood creatinine increased, Grade ≥3 [3]: 0 no. (%)
Patients with Conjunctivitis, Any grade [3]: 4 (12) no. (%)
Patients with Conjunctivitis, Grade 1 [3]: 3 (9) no. (%)
Patients with Conjunctivitis, Grade 2 [3]: 1 (3) no. (%)
Patients with Conjunctivitis, Grade ≥3 [3]: 0 no. (%)
Patients with Constipation, Any grade [3]: 14 (42) no. (%)
Patients with Constipation, Grade 1 [3]: 8 (24) no. (%)
Patients with Constipation, Grade 2 [3]: 6 (18) no. (%)
Patients with Constipation, Grade ≥3 [3]: 0 no. (%)
Patients with Decreased appetite, Any grade [3]: 11 (33) no. (%)
Patients with Decreased appetite, Grade 1 [3]: 4 (12) no. (%)
Patients with Decreased appetite, Grade 2 [3]: 6 (18) no. (%)
Patients with Decreased appetite, Grade ≥3 [3]: 1 (3) no. (%)
Patients with Diarrhea, Any grade [3]: 14 (42) no. (%)
Patients with Diarrhea, Grade 1 [3]: 7 (21) no. (%)
Patients with Diarrhea, Grade 2 [3]: 6 (18) no. (%)
Patients with Diarrhea, Grade ≥3 [3]: 1 (3) no. (%)
Patients with Dry eye, Any grade [3]: 3 (9) no. (%)
Patients with Dry eye, Grade 1 [3]: 2 (6) no. (%)
Patients with Dry eye, Grade 2 [3]: 1 (3) no. (%)
Patients with Dry eye, Grade ≥3 [3]: 0 no. (%)
Patients with Dry mouth, Any grade [3]: 16 (48) no. (%)
Patients with Dry mouth, Grade 1 [3]: 15 (46) no. (%)
Patients with Dry mouth, Grade 2 [3]: 1 (3) no. (%)
Patients with Dry mouth, Grade ≥3 [3]: 0 no. (%)
Patients with Dry skin, Any grade [3]: 9 (27) no. (%)
Patients with Dry skin, Grade 1 [3]: 8 (24) no. (%)
Patients with Dry skin, Grade 2 [3]: 1 (3) no. (%)
Patients with Dry skin, Grade ≥3 [3]: 0 no. (%)
Patients with Dysgeusia, Any grade [3]: 10 (30) no. (%)
Patients with Dysgeusia, Grade 1 [3]: 7 (21) no. (%)
Patients with Dysgeusia, Grade 2 [3]: 3 (9) no. (%)
Patients with Dysgeusia, Grade ≥3 [3]: 0 no. (%)
Patients with Dyspepsia, Any grade [3]: 3 (9) no. (%)
Patients with Dyspepsia, Grade 1 [3]: 2 (6) no. (%)
Patients with Dyspepsia, Grade 2 [3]: 1 (3) no. (%)
Patients with Dyspepsia, Grade ≥3 [3]: 0 no. (%)
Patients with Dyspnea, Any grade [3]: 8 (24) no. (%)
Patients with Dyspnea, Grade 1 [3]: 3 (9) no. (%)
Patients with Dyspnea, Grade 2 [3]: 2 (6) no. (%)
Patients with Dyspnea, Grade ≥3 [3]: 3 (9) no. (%)
Patients with Fatigue, Any grade [3]: 6 (18) no. (%)
Patients with Fatigue, Grade 1 [3]: 4 (12) no. (%)
Patients with Fatigue, Grade 2 [3]: 2 (6) no. (%)
Patients with Fatigue, Grade ≥3 [3]: 0 no. (%)
Patients with Hand-foot syndrome, Any grade [3]: 2 (6) no. (%)
Patients with Hand-foot syndrome, Grade 1 [3]: 0 no. (%)
Patients with Hand-foot syndrome, Grade 2 [3]: 2 (6) no. (%)
Patients with Hand-foot syndrome, Grade ≥3 [3]: 0 no. (%)
Patients with Hematuria, Any grade [3]: 3 (9) no. (%)
Patients with Hematuria, Grade 1 [3]: 1 (3) no. (%)
Patients with Hematuria, Grade 2 [3]: 2 (6) no. (%)
